In patent US10975399B2, “Use of nitric oxide or nitric oxide donor for inducing the production of triacylglycerols in microalgae” (Commissariat A L'energie Atomique Et Aux Energies …, priority 2016, dated 2021):

Key:
[1] = system: Phaeodactylum tricornutum; assay: TAG accumulation by Nile Red staining; assay type: cell-based; details: 1 mM, 2-day incubation, 500 μL volume, 10×ESAW medium
Procedure: FIGS. 1 to 4: Effect of increasing concentrations of SNAP on the production of TAG in Phaedocatylum tricornutum. The medium used was 10×ESAW; incubation was performed in 500 μl, inoculated at 1E+06 cells/ml, with immediate addition of chemicals. Measurements were performed after 2 days of incubation. Data of FIGS. 1 and 2 and 3 are the results of 3 biological replicates, FIG. 4 was a time course without replicates. NAP was used as a non-active analogue of SNAP. FIG. 2: Effect of increasing concentrations of SNAP on TAG level per cell. TAG level per cell is given in relative fluorescence units/10^6 cells. FIG. 3: Effect of increasing concentrations of SNAP on TAG productivity. TAG productivity is given in relative fluorescence unit (Rfu) corresponding to the fluorescence of Nile Red per mL and per day. […] Growth was evaluated by cell counting using a Malassez counting chamber, or by the absorption at 750 nm using a plate reader. […] Accumulation of TAG droplets was monitored by Nile Red (Sigma Aldrich) fluorescent staining (Excitation wavelength at 485 nm; emission at 525 nm) following the principles previously described (Abida et al., 2015). In brief, cells were diluted and adjusted to a cell density that was linearly correlated with Nile Red fluorescence. […] Alternatively, Nile red fluorescence values were normalized to the cell concentration.

[2] = system: Phaeodactylum tricornutum; assay: Growth of P. tricornutum incubated with the NO donor (cell counting); assay type: cell-based; details: 1 mM, 2-day incubation, 500 μL volume, 10×ESAW medium, FIG. 1
Procedure: FIGS. 1 to 4: Effect of increasing concentrations of SNAP on the production of TAG in Phaedocatylum tricornutum. The medium used was 10×ESAW; incubation was performed in 500 μl, inoculated at 1E+06 cells/ml, with immediate addition of chemicals. Measurements were performed after 2 days of incubation. Data of FIGS. 1 and 2 and 3 are the results of 3 biological replicates, FIG. 4 was a time course without replicates. NAP was used as a non-active analogue of SNAP. FIG. 1: Effect of increasing concentrations of SNAP on growth. Growth is measured in cell/mL. Phaeodactylum tricornutum (Ptl) Bohlin Strain 8.6 CCMP2561 (Culture Collection of Marine Phytoplankton, now known as NCMA: National Center for Marine Algae and Microbiota) was used in all experiments. Ptl was grown at 20° C. in 250 mL flask in artificial seawater (ESAW) medium (composition of the medium see table 1) using ten times enriched nitrogen and phosphate sources (5.49·10^−3 M NaNO3 and 2.24·10^−4 NaH3PO4) called “10×ESAW”, or nitrogen-depleted medium. Cells were grown on a 12:12 light (30 μE m^−2sec^−1)/dark cycle. Cells were sub-cultured twice a week by inoculating 1·10^6 cells/ml with fresh media. Growth was evaluated by cell counting using a Malassez counting chamber, or by the absorption at 750 nm using a plate reader. S-Nitroso-N-acetylpenicillamine (SNAP) is a compound that spontaneously releases NO, when dissolved.

Q: For CC(=O)N[C@H](C(=O)O)C(C)(C)SN=O (racemic) [SNAP, S-Nitroso-N-acetylpenicillamine], which “increase of productivity (level of TAG per volume of culture and per day)” value ([1]; Nile Red Rfu per mL and per day, FIG. 3) is on record?
A: > 2 fold

Q: And the “increase of TAG per cell” value ([1]; Nile Red fluorescence per 10^6 cells, FIG. 2)?
A: 2.2 fold

Q: What about the cell growth [2] of the same compound?
A: reduction of cell growth
